Data on 19 compounds can be found in patent US9309227B2, “N-biphenylmethylbenzimidazole modulators of PPARG” (The Scripps Research Institute, priority 2011, dated 2016).

The target in one experiment is T1, GST-PPARG-LBD (Homo sapiens, UniProt P37231).
T1 construct: A mixture of 5 nM GST-PPARG-LBD; purchased Invitrogen
T1 sequence (P37231 238-503 limits assumed): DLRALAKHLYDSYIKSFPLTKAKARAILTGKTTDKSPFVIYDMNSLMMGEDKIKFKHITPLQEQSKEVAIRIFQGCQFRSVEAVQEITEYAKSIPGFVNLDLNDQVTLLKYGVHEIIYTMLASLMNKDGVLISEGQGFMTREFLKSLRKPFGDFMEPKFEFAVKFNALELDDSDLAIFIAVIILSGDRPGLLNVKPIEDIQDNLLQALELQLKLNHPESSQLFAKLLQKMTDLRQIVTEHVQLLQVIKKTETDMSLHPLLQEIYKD
Put plainly: Lanthascreen PPARG competitive binding assay (Invitrogen). The following applies: Table 3; read-out: IC50 (nM) Lantha. How it is done: Lanthascreen PPARG Competitive Binding Assay (Invitrogen)
The assay was performed according to manufacturer protocol. A mixture of 5 nM GST-PPARG-LBD, 5 nM Tb-GST-antibody, […] Pan-PPAR Green, and serial dilutions of the experimental compound, beginning at 10 μM downwards, was added to wells of black 384-well low-volume plates (Greiner) to a total volume of 18 μL. All dilutions were made in TR-FRET assay buffer C. DMSO at 2% final concentration was used as a no-ligand control. Experiment was performed in triplicate, and incubated tier 2 hours in the dark prior to assay read in Perkin Elmer ViewLux ultra HTS microplate reader. FRET signal was measured by excitation at 340 nm and emission at 520 nm for fluorescein and […] for terbium. Fold change over DMSO was calculated using GraphPad Prism Software (La Jolla, Calif.) by calculating 520 nm/490 nm ratio. Graphs were plotted as fold change of FRET signal for compound treatment over DMSO-only control.
On the technique in general: TR-FRET usually uses a lanthanide donor and a delayed reading to cut background.

The test system of experiment [1] is PPARG. The experiment is described as follows: Cell-based transactivation assay (PPRE-luciferase reporter co-transfected with PPARG in COS-1 cells). Details: species or system human or mouse. The following applies: COS-1 cells. On the procedure:
(§1) Cell-Based Transactivation Assay:
(§2) PPRE is a DNA that contains a binding site for PPARG; thus PPRE is a PPAR response element, used herein as a promoter reporter. The binding site is a DR1 response element with the sequence AGGTCA repeated 3 times in tandem and then fused to a construct for luciferase.
(§3) Thus, PPRE is the basis of the cell based transactivation assay described below. The plasmid DNA is co-transfected along with a plasmid for PPARG into COS-1 cells. After an overnight incubation, cells are treated with DMSO or compounds.
(§4) Confluent COS-1 cells were transfected with 4.5 μg murine PPARg2-pSV Sport. or full-length human PPARg-pSport6, 4.5 μg 3×PPRE-luciferase reporter and 27 μL X-treme Gene 9 transfection reagent in serum-free opti-mem media (Gibco), followed by overnight incubation at 37° C., 5% CO2. Transfected cells were plated in white Perkin Elmer 384-well plates and incubated 4 hours. […] After 18 hour incubation, treated cells were developed with Brite Lite Plus (Perkin Elmer) and read in 384-well Luminescence Perkin Elmer En Vision Multilabel plate reader. Graphs were plotted in triplicate in GraphPad Prism Software as fold change of treated cells over DMSO control cells.
On the technique in general: A reporter such as luciferase makes a cellular process visible.

For experiment [2], the target named is T2, PPARG (Homo sapiens, UniProt P37231).
T2 sequence (P37231 204-505): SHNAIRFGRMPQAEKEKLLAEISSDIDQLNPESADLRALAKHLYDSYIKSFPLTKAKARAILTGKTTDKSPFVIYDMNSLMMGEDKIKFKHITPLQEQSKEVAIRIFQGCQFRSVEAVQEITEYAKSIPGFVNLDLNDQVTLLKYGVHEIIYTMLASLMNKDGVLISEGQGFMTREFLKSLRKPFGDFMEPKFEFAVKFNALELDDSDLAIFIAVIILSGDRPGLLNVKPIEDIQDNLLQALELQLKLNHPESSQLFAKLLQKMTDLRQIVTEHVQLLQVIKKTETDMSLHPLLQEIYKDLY
The experiment is described as follows: Gal 4 assay (ED50 and % act). Format: cell-based. The following applies: for activation at 1 µM: read-out: GL 4% act 1 μM; for activation at 10 µM: read-out: GL 4% act 10 μM.

The target of experiment [3] is T3, PPARG (UniProt P37231).
T3 construct: PPRE % act 1 μM; other: 1 μM
T3 sequence (P37231 1-505): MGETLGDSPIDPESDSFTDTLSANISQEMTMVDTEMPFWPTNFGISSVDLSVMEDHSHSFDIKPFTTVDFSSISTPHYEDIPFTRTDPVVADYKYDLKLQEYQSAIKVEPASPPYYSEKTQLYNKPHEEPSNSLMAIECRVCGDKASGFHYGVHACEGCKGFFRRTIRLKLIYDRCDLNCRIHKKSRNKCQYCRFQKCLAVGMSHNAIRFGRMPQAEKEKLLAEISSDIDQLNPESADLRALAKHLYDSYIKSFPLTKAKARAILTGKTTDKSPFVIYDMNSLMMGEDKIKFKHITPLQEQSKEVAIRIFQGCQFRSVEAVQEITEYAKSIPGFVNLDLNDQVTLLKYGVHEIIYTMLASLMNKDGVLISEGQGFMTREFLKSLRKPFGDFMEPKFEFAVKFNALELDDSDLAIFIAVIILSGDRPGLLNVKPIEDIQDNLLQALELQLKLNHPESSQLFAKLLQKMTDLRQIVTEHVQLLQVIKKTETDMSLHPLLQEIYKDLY
The experiment is described as follows: Cell-based transactivation assay (PPRE-luciferase reporter co-transfected with PPARG in COS-1 cells). Details: species or system human or mouse. On the procedure:
as §1, §2, §3, §4

As to `CC(C)c1cccc([C@H](C)NC(=O)c2ccc3c(c2)ncn3Cc2ccc(-c3ccccc3C(O)C(F)(F)F)cc2)c1` (stereo partly drawn) [Compound 26, N—((S)-1-(3-isopropylphenyl)ethyl)-1-((2′-(2,2,2-trifluoro-1-hydroxyethyl)biphenyl-4-yl)methyl)-1H-benzo[d]imidazole-5-carboxamide], the IC50 (as a rule, the point on the concentration scale where inhibition reaches its midpoint) on GST-PPARG-LBD came out at 15700 nM.

`CC(C)CCC(C)NC(=O)c1ccc2ncn(Cc3ccc(-c4ccccc4C(=O)O)cc3)c2c1` (centres unmarked) [Compound 20]: the IC50 at GST-PPARG-LBD came out at 2550 nM.

As to `O=C(NCC1CC1)c1ccc2c(c1)ncn2Cc1ccc(-c2ccccc2C(=O)O)cc1` [Compound 17, 4′-((5 ((cyclopropylmethyl)carbamoyl)-1H-benzo[d]imidazol-1-yl)methyl)-[1,1′-biphenyl]-2-carboxylic acid], the IC50 on GST-PPARG-LBD is 22100 nM.

As for `CC(C)CCNC(=O)c1ccc2c(c1)ncn2Cc1ccc(-c2ccccc2C(=O)O)cc1` [Compound 18, 4′-((5-(isopentylcarbamoyl)-1H-benzo[d]imidazol-1-yl)methyl)-[1,1′-biphenyl]-2-carboxylic acid], the IC50 at GST-PPARG-LBD was determined as 2430 nM.

Consider `CCOCCNC(=O)c1ccc2c(c1)ncn2Cc1ccc(-c2ccccc2C(=O)O)cc1` [Compound 16, 4′-((5-(2-ethoxyethylcarbamoyl)-1H-benzo[d]imidazol-1-yl)methyl)biphenyl-2-carboxylic acid], for which the IC50 on GST-PPARG-LBD amounted to 9790 nM.

Regarding MRL24 [reference compound], the “transactivation of the reporter, of rosiglitazone response” value in the experiment on PPARG [1] (relative to rosiglitazone) is recorded as “about 25%”.

As to `CC(C)CCC(C)NC(=O)c1ccc2c(c1)ncn2Cc1ccc(-c2ccccc2C(=O)O)cc1` (centres unmarked) [Compound 13, 4′-((5-(5-methylhexan-2-ylcarbamoyl)-1H-benzo[d]imidazol-1-yl)methyl)biphenyl-2-carboxylic acid], the IC50 at GST-PPARG-LBD was 26.7 nM. Further, at PPARG [2], the activation at 1 µM worked out at 22.5% and the activation at 10 µM came out at 60.5%.

Turning to `CC(C)c1cccc([C@H](C)NC(=O)c2ccc3c(c2)ncn3Cc2ccc(-c3ccccc3C(=O)O)nc2)c1` [Compound 27, (S)-2-(5-((5-((1-(3-isopropylphenyl)ethyl)carbamoyl)-1H-benzo[d]imidazol-1-yl)methyl)pyridin-2-yl)benzoic acid], the IC50 at GST-PPARG-LBD turned out to be 8740 nM.

Take `CN(CCOc1ccc(CC2SC(=O)NC2=O)cc1)c1ccccn1` (centres unmarked) [rosiglitazone, reference compound]: in the experiment with PPARG [1], the “activation of the PPRE reporter” value is recorded as “about 5 fold”.

`Cc1nc2cc(C(=O)N[C@@H](C)c3cccc(C(C)C)c3)ccc2n1Cc1ccc(-c2ccccc2C(O)C(F)(F)F)cc1` (stereo partly drawn) [Compound 25, N—((S)-1-(3-isopropylphenyl)ethyl)-2-methyl-1-((2′-(2,2,2-trifluoro-1-hydroxyethyl)biphenyl-4-yl)methyl)-1H-benzo[d]imidazole-5-carboxamide]: the IC50 on GST-PPARG-LBD was found to be 5470 nM.

With `CC(C)c1cccc([C@H](C)NC(=O)c2ccc3c(c2)ncn3Cc2ccc(-c3ccccc3C(=O)O)cc2)c1` [Compound 22, (S)-4′-((5-(1-(3-isopropylphenyl)ethylcarbamoyl)-1H-benzo[d]imidazol-1-yl)methyl)biphenyl-2-carboxylic acid], the IC50 on GST-PPARG-LBD came to 1830 nM.

With `Cc1nc2cc(C(=O)N[C@@H](C)c3cccc(C(C)C)c3)ccc2n1Cc1ccc(-c2cccnc2C(=O)O)cc1` [Compound 29, (S)-3-(4-((5-(1-(3-isopropylphenyl)ethylcarbamoyl)-2-methyl-1H-benzo[d]imidazol-1-yl)methyl)phenyl)picolinic acid], the IC50 on GST-PPARG-LBD was determined as 4800 nM.

For `COC(=O)c1ccccc1-c1ccc(Cn2cnc3cc(C(=O)N[C@@H](C)c4cccc(C(C)C)c4)ccc32)cn1` [Compound 28, (S)-methyl 2-(5-((5-((1-(3-isopropylphenyl)ethyl)carbamoyl)-1H-benzo[d]imidazol-1-yl)methyl)pyridin-2-yl)benzoate], at GST-PPARG-LBD, the IC50 was 9070 nM.

As for `CC(C)CC(C)NC(=O)c1ccc2c(c1)ncn2Cc1ccc(-c2ccccc2C(=O)O)cc1` (centres unmarked) [Compound 14, 4′((5-((4-methylpentan-2-yl)carbamoyl)-1H-benzo[d]imidazol-1-yl)methyl)-[1,1′-biphenyl]-2-carboxylic acid], on GST-PPARG-LBD, the IC50 was found to be 102 nM. Moreover, at PPARG [2], the activation at 1 µM is 7.71% and the activation at 10 µM was found to be 32.2%.

Take `CC(C)c1cccc([C@H](C)NC(=O)c2ccc3c(c2)ncn3Cc2ccc(-c3ccccc3C(=O)O)cc2)c1` [Compound 23]: at GST-PPARG-LBD, the IC50 is 683 nM. For the same compound, the activation at 1 µM on PPARG [2] was 12.9%. For the same compound, the “PPRE % act 1 μM” value on PPARG [3] (1 μM) was −10.26%. The EC50 (as a rule, the concentration needed to bring the measured effect to its halfway point) on PPARG [3] (Table 3) amounted to 1.61 nM.

For the compound `COCCCNC(=O)c1ccc2c(c1)ncn2Cc1ccc(-c2ccccc2C(=O)O)cc1` [Compound 15, 4′-((5-(3-methoxypropylcarbamoyl)-1H-benzo[d]imidazol-1-yl)methyl)biphenyl-2-carboxylic acid], the IC50 on GST-PPARG-LBD stood at 15000 nM.

For `CC(C)CC(C)NC(=O)c1ccc2ncn(Cc3ccc(-c4ccccc4C(=O)O)cc3)c2c1` (centres unmarked) [Compound 19, 4′-((6-(4-methylpentan-2-ylcarbamoyl)-1H-benzo[d]imidazol-1-yl)methyl)biphenyl-2-carboxylic acid], the IC50 at GST-PPARG-LBD stood at 9.02 nM.

Regarding `CC(C)c1cccc([C@H](C)NC(=O)c2ccc3c(c2)ncn3Cc2ccc(-c3ccccc3CO)cc2)c1` [Compound 21, (S)-1-((2′-(hydroxymethyl)biphenyl-4-yl)methyl)-N-(1-(3-isopropylphenyl)ethyl)-1H-benzo[d]imidazole-5-carboxamide], the concentration for half-maximal inhibition (IC50) at GST-PPARG-LBD turned out to be 6490 nM.

Take `CC(C)c1cccc([C@H](C)NC(=O)c2ccc3c(c2)ncn3Cc2ccc(-c3cccnc3C(=O)O)cc2)c1` [Compound 24, (S)-3-(4-((5-(1-(3-isopropylphenyl)ethylcarbamoyl)-1H-benzo[d]imidazol-1-yl)methyl)phenyl)picolinic acid]: the IC50 at GST-PPARG-LBD came to 2130 nM.
